Experimental data published in patent US11691980B2, “Liphagal analog and multi-targeted kinase inhibitor containing liphagal or analog thereof” (TOHOKU UNIVERSITY, priority 2017, dated 2023).

Experiments:
Test in all cases: mobility shift assay
Assay type in all cases: biochemical
WNK1 = target: T1, WNK1 (Homo sapiens, UniProt Q9H4A3)
T1 construct: purchased Carna Biosciences

SkMLCK = target: T2, SkMLCK (Homo sapiens, UniProt Q9H1R3)
T2 construct: purchased Carna Biosciences

HPK1 = target: T3, HPK1 (Homo sapiens, UniProt Q86Z02)
T3 construct: purchased Carna Biosciences

JNK2 = target: T4, JNK2 (Homo sapiens, UniProt P45984)
T4 construct: purchased Carna Biosciences

BRAF(V600E)_Cascade = target: T5, BRAF(V600E)_Cascade (Homo sapiens, UniProt P15056, V600E)
T5 construct: purchased Carna Biosciences

TYK2 = target: T6, TYK2 (Homo sapiens, UniProt P29597)
T6 construct: purchased Carna Biosciences

ROS = target: T7, ROS (Homo sapiens, UniProt P08922)
T7 construct: purchased Carna Biosciences

EPHA4 = target: T8, EPHA4 (Homo sapiens, UniProt P54764)
T8 construct: purchased Carna Biosciences

CaMK1α = target: T9, CaMK1α (Homo sapiens, UniProt Q14012)
T9 construct: purchased Carna Biosciences

NEK9 = target: T10, NEK9 (Homo sapiens, UniProt Q8TD19)
T10 construct: purchased Carna Biosciences
T10 sequence (Q8TD19 whole entry): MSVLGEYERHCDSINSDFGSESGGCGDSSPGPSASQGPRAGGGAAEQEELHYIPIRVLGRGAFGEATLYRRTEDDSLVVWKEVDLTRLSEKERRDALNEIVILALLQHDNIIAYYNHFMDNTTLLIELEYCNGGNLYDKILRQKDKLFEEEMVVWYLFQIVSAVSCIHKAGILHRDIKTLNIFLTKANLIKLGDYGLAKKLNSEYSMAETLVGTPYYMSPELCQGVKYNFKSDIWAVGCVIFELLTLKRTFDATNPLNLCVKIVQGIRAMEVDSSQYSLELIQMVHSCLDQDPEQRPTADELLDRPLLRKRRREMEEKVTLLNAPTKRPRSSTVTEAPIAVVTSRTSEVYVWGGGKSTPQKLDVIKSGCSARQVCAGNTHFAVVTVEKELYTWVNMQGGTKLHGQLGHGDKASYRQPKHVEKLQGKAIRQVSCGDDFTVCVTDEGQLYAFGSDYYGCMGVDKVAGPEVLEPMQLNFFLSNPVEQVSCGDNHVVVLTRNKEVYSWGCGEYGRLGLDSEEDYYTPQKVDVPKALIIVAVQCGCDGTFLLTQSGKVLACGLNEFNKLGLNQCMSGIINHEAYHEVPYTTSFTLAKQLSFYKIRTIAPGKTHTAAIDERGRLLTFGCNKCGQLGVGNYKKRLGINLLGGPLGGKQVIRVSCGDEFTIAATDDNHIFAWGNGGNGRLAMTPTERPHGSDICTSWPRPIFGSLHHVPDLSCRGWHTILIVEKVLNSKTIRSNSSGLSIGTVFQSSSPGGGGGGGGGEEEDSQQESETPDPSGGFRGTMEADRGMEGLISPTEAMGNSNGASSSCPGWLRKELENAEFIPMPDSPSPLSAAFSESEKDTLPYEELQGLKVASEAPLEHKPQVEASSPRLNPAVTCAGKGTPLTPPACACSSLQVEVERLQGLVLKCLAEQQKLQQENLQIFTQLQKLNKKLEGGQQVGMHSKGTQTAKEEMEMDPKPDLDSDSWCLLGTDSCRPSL

SPHK2 = target: T11, SPHK2 (Homo sapiens, UniProt Q9NRA0)
T11 construct: purchased Carna Biosciences

GSK3β = target: T12, GSK3β (Homo sapiens, UniProt P49841)
T12 construct: purchased Carna Biosciences

ROCK2 = target: T13, ROCK2 (Homo sapiens, UniProt O75116)
T13 construct: purchased Carna Biosciences
T13 sequence (O75116 whole entry): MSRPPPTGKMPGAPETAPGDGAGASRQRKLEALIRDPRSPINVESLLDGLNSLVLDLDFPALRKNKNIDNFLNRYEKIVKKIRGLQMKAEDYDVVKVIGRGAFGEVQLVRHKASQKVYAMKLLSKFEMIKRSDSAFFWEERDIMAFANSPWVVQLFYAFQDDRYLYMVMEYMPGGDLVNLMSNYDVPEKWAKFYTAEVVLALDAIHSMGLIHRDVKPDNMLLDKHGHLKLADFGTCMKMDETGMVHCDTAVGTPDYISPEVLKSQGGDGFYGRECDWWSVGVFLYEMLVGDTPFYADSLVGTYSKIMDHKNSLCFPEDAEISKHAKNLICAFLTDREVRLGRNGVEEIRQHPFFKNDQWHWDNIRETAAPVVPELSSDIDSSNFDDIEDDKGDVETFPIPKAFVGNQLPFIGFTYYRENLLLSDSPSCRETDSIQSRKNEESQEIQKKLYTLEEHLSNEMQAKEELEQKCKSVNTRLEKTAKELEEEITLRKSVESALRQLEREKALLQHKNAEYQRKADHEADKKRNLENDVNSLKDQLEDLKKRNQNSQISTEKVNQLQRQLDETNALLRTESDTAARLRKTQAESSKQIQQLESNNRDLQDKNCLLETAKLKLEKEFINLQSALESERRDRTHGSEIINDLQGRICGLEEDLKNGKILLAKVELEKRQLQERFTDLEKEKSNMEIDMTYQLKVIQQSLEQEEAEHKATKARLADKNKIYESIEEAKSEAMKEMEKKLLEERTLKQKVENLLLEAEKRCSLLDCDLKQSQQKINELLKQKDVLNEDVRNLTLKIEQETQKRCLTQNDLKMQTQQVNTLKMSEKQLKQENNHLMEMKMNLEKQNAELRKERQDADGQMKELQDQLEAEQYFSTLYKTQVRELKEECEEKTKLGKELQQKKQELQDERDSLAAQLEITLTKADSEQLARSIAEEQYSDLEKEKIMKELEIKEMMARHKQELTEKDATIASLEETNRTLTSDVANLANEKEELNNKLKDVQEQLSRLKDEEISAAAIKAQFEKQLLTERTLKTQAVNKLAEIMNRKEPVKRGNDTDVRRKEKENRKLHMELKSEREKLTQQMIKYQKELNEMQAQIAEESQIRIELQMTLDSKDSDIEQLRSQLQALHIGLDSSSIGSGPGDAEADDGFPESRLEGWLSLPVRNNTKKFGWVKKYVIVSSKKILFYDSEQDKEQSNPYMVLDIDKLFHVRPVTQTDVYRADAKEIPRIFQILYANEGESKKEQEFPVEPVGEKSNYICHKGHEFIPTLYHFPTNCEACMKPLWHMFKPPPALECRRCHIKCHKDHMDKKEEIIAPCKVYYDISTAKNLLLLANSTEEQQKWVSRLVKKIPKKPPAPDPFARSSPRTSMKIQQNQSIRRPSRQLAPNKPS

MAP2K5 Cascade = target: T14, MAP2K5 Cascade (Homo sapiens, UniProt Q13163)
T14 construct: purchased Carna Biosciences
T14 sequence (Q13163 whole entry): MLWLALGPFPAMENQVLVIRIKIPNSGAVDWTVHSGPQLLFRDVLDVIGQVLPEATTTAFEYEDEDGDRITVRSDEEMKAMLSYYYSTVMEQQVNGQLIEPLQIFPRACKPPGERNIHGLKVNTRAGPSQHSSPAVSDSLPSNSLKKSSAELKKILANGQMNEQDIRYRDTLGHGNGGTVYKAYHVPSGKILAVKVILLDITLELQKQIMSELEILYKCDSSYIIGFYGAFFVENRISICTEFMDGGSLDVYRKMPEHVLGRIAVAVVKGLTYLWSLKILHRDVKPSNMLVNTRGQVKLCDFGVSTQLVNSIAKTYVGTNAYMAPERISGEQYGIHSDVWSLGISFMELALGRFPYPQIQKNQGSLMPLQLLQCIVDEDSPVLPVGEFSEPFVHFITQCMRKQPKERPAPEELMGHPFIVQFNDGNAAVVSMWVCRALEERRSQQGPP

MNK2 = target: T15, MNK2 (Homo sapiens, UniProt Q9HBH9)
T15 construct: purchased Carna Biosciences

HCK = target: T16, HCK (Homo sapiens, UniProt P08631)
T16 construct: purchased Carna Biosciences

Haspin = target: T17, Haspin (Homo sapiens, UniProt Q8TF76)
T17 construct: purchased Carna Biosciences

CaMK2γ = target: T18, CaMK2γ (Homo sapiens, UniProt Q13555)
T18 construct: purchased Carna Biosciences

Erk5 = target: T19, Erk5 (Homo sapiens, UniProt Q13164)
T19 construct: purchased Carna Biosciences

TNK1 = target: T20, TNK1 (Homo sapiens, UniProt Q13470)
T20 construct: purchased Carna Biosciences

MOS_Cascade = target: T21, MOS_Cascade (Homo sapiens, UniProt P00540)
T21 construct: purchased Carna Biosciences

MET(M125DT) = target: T22, MET(M125DT) (Homo sapiens, UniProt P08581, M1250T)
T22 construct: purchased Carna Biosciences

YES(T348I) = target: T23, YES(T348I) (Homo sapiens, UniProt P07947, T348I)
T23 construct: purchased Carna Biosciences

MAP3K5_Cascade = target: T24, MAP3K5_Cascade (Homo sapiens, UniProt Q99683)
T24 construct: purchased Carna Biosciences

FGFR4(V550E) = target: T25, FGFR4(V550E) (Homo sapiens, UniProt P22455, V550E)
T25 construct: purchased Carna Biosciences

PKCβ1 = target: T26, PKCβ1 (Homo sapiens, UniProt P05771)
T26 construct: purchased Carna Biosciences

ABL(T315I) = target: T27, ABL(T315I) (Homo sapiens, UniProt P00519, T315I)
T27 construct: purchased Carna Biosciences

CK1y1 = target: T28, CK1y1 (Homo sapiens, UniProt Q9HCP0)
T28 construct: purchased Carna Biosciences

DDR1 = target: T29, DDR1 (Homo sapiens, UniProt Q08345)
T29 construct: purchased Carna Biosciences
T29 sequence (Q08345 19-913): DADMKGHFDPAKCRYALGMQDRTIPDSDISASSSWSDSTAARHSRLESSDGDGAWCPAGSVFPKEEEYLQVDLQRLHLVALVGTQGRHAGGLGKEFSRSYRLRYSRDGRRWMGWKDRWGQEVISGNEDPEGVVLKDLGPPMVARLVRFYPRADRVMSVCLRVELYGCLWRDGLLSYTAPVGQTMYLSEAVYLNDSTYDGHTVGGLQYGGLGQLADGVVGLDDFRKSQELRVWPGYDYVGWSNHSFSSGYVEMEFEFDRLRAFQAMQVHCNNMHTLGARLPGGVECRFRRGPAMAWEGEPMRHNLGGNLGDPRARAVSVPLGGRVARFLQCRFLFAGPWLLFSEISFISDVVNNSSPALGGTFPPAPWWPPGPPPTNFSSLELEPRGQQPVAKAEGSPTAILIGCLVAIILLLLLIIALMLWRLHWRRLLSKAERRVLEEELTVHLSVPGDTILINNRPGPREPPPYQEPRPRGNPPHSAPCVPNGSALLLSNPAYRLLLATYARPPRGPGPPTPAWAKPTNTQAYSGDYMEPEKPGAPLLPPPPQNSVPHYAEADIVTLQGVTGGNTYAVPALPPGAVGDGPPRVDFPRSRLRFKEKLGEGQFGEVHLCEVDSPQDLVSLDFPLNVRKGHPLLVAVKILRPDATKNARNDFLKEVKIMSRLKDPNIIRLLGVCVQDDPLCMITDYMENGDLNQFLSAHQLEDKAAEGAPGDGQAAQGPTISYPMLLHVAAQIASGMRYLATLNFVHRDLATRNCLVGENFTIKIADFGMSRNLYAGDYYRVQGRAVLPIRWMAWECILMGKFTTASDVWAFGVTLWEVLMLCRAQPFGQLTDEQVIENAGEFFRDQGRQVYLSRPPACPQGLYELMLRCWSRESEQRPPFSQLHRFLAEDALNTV

EGFR(T790/L858R) = target: T30, EGFR(T790/L858R) (Homo sapiens, UniProt P00533, L858R/T790M)
T30 construct: purchased Carna Biosciences

LYNa = target: T31, LYNa (Homo sapiens, UniProt P07948)
T31 construct: purchased Carna Biosciences

MAP2K7_Cascade = target: T32, MAP2K7_Cascade (Homo sapiens, UniProt O14733)
T32 construct: purchased Carna Biosciences

LCK = target: T33, LCK (Homo sapiens, UniProt P06239)
T33 construct: purchased Carna Biosciences

PKCε = target: T34, PKCε (Homo sapiens, UniProt Q02156)
T34 construct: purchased Carna Biosciences

FYN(isoform b) = target: T35, FYN(isoform b) (Homo sapiens, UniProt P06241)
T35 construct: purchased Carna Biosciences

PLK1 = target: T36, PLK1 (Homo sapiens, UniProt P53350)
T36 construct: purchased Carna Biosciences

SYK = target: T37, SYK (Homo sapiens, UniProt P43405)
T37 construct: purchased Carna Biosciences

PAK4 = target: T38, PAK4 (Homo sapiens, UniProt O96013)
T38 construct: purchased Carna Biosciences

PBK = target: T39, PBK (Homo sapiens, UniProt Q96KB5)
T39 construct: purchased Carna Biosciences
T39 sequence (Q96KB5 whole entry): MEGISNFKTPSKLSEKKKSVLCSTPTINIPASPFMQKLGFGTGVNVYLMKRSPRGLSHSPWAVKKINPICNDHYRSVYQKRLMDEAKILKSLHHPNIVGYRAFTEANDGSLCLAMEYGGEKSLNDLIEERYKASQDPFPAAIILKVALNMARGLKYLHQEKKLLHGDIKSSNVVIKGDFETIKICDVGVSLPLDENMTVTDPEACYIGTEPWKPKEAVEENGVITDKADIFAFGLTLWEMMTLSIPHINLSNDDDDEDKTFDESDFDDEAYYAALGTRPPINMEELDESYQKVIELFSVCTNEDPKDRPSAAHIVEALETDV

TRKB = target: T40, TRKB (Homo sapiens, UniProt Q16620)
T40 construct: purchased Carna Biosciences
T40 sequence (Q16620 32-822): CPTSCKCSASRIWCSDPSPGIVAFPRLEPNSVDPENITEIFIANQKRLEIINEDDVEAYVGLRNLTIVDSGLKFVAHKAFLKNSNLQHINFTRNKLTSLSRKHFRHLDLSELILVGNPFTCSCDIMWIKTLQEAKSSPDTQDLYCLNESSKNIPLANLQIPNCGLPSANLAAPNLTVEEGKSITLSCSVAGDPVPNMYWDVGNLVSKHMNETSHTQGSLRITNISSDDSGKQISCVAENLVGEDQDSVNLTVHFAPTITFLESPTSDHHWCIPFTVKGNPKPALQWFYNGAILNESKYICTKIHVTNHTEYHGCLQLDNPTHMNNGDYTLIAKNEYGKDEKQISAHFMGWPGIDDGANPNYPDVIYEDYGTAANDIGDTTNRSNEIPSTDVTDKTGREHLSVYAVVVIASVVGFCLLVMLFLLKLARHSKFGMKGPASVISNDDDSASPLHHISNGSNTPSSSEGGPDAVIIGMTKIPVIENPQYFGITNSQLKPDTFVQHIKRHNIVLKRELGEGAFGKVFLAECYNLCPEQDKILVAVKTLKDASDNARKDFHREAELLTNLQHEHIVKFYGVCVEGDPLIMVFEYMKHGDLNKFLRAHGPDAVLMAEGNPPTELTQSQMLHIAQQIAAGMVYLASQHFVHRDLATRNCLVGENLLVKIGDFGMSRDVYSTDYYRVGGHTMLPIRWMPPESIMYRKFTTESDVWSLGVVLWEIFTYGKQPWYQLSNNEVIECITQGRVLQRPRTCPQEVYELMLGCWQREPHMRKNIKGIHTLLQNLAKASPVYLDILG

C[C@@H]1CC[C@H]2C(C)(C)CCC[C@]2(C)c2c1oc1c(C=O)c(O)c(O)cc21 [LG-1, liphagal]
inhibition at 10 µM (WNK1): 17.3%
inhibition at 10 µM (SkMLCK): -1.3%
inhibition at 10 µM (HPK1): 26.1%
inhibition at 10 µM (JNK2): 10.7%
inhibition at 10 µM (BRAF(V600E)_Cascade): 19.5%
inhibition at 10 µM (TYK2): -6.5%
inhibition at 10 µM (ROS): 8.6%
inhibition at 10 µM (EPHA4): 2%
inhibition at 10 µM (CaMK1α): 25.7%
inhibition at 10 µM (NEK9): 27.3%
inhibition at 10 µM (SPHK2): 17.4%
inhibition at 10 µM (GSK3β): 25.3%
inhibition at 10 µM (ROCK2): 2%
inhibition at 10 µM (MAP2K5 Cascade): -1.3%
inhibition at 10 µM (MNK2): 5.9%
inhibition at 10 µM (HCK): 4.8%
inhibition at 10 µM (Haspin): 3.3%
inhibition at 10 µM (CaMK2γ): 3.8%
inhibition at 10 µM (Erk5): 0.6%
inhibition at 10 µM (TNK1): 5.1%
inhibition at 10 µM (MOS_Cascade): 29.5%
inhibition at 10 µM (MET(M125DT)): -0.2%
inhibition at 10 µM (YES(T348I)): 3.7%
inhibition at 10 µM (MAP3K5_Cascade): 38%
inhibition at 10 µM (FGFR4(V550E)): 2.4%
inhibition at 10 µM (PKCβ1): -18%
inhibition at 10 µM (ABL(T315I)): 6.1%
inhibition at 10 µM (CK1y1): 2.8%
inhibition at 10 µM (DDR1): 60.5%
inhibition at 10 µM (EGFR(T790/L858R)): -2.2%
inhibition at 10 µM (LYNa): 7.6%
inhibition at 10 µM (MAP2K7_Cascade): 5.5%
inhibition at 10 µM (LCK): 11%
inhibition at 10 µM (PKCε): -46.9%
inhibition at 10 µM (FYN(isoform b)): 3.1%
inhibition at 10 µM (PLK1): 31.3%
inhibition at 10 µM (SYK): 17%
inhibition at 10 µM (PAK4): -24.7%
inhibition at 10 µM (PBK): 13%
inhibition at 10 µM (TRKB): 15.8%
